Test results from paper PMC11161644, “An effective and rapidly degradable disinfectant from disinfection byproducts” (Nature Communications, 2024).
Where “and” joins values, the source holds several entries; their conditions need not be identical. Equal entries are not always repeated. Where two headings read alike, the source gives them in different places.

Legend:
C. albicans (ATCC 14053) = assay: Inactivation of C. albicans (contact time 5 min); type: cell-based, Candida albicans; conditions: Candida albicans, ATCC14053, 5 min, pH 7.2, read-out: Log (N/N0), C. albicans; dose 300 mg L-1; pH 7.2; contact time 5 min
Protocol: (§1) The chemicals and reagents used are detailed in Supplementary Note 1. The bacteria E. coli (ATCC 25922) and S. aureus (ATCC 25923) were cultured aerobically in Luria-Bertani broth (Sigma-Aldrich) and Tryptone Soya broth (Oxoid), respectively, at 37 °C for 16 h. The fungus C. albicans (ATCC 14053) was aerobically cultured in Sabouraud Dextrose broth (Difco) at 37 °C for 24 h. The microorganism cells were harvested by centrifugation at 1200×g (10 min, 4 °C) and resuspended in phosphate-buffered saline (PBS, 10 mM, pH 7.2). The disinfection experiments were performed in PBS solutions (10 mM, pH 7.2) with an initial concentration of E. coli, S. aureus, or C. albicans of 10^6‒10^7 cells per milliliter. A contact time of 5 min was used in accordance with the recommended time range of 0.25–10 min by USEPA for surface disinfection. Preliminary tests were conducted to determine the appropriate range of DBP doses. The appropriate dose range was established when the lowest and highest doses could achieve <1-log and >3-log of microbial inactivation, respectively. Based on the preliminary results, a series of doses of DBPs were added to the cell suspensions at room temperature (22 ± 1 °C). After the contact time of 5 min, the microorganism cells were enumerated following a membrane filter method. Briefly, serial 10-fold dilutions were conducted for the disinfected samples and the control sample without disinfection. Each diluted suspension was subjected to filtration through 0.45-μm membrane, which was then placed on a petri dish. The Petri dishes containing E. coli, S. aureus, and C. albicans were incubated in m-FC medium (Becton Dickinson & Co) at 45 °C for 24 h, in Tryptone Soya broth at 37 °C for 24 h and in Sabouraud Dextrose broth at 37 °C for 24 h, respectively. After incubation, the colony-forming units within a statistically reasonable range (20–80) were counted.

P. dumerilii embryos = assay: Developmental toxicity assay with P. dumerilii embryos, dilution factor of in-use concentration (EC50,DF), also after degradation in darkness; type: in vivo, Platynereis dumerilii
Source text: The DBP doses for 3-log E. coli reduction (pH 7.2) were set as the in-use concentrations, which were serially diluted and added to the P. dumerilii embryos at 12-h postfertilization. A dilution factor was defined as the ratio of the in-use concentration to the exposure concentration. Each exposure set contained a control sample (i.e., the embryos at 12-h postfertilization developed in seawater without the addition of DBPs). By 24-h postfertilization, normally developed embryos should have reached the first larval stage. An inverted stereomicroscope (×40 magnification) was used to observe the larvae. The normal development percentage was calculated as the ratio of normally developed embryos to total embryos. By plotting the curve of the normal development percentage versus the dilution factor, the EC50,DF value (i.e., the dilution factor corresponding to 50% of the normal development percentage of the control sample) was obtained using SigmaPlot 12. The developmental toxicity test was conducted in duplicate.

[1] = Degradation in seawater with simulated solar irradiation; conditions: for half-life at 10 mg L−1: buffer, pH 8.2; for Ln (C/C0): seawater pH 8.2, solar irradiation
Protocol: The solar photolysis experiments were conducted in a chamber equipped with eight simulated sunlight full-spectrum lamps (BlueMax 5900, Full Spectrum Solutions). The temperature in the chamber was maintained at 20 °C. The total intensity of simulated sunlight was determined using a digital photometer (DT-1010B, Shenzhen Golden Octopus, China). Quartz flasks were positioned in the chamber where the total intensity of simulated sunlight was 4.79 ± 0.04 mW cm^−2 for each quartz flask. […] A DBP was added at 10 mg L^−1 to 50 mL pretreated seawater (pH 8.2) in the quartz flasks and exposed to the simulated solar irradiation for 0‒96 h. Every 8 h, the quartz flasks were rotated in and out of the chamber, and the sample volume was determined and adjusted with ultrapure water to account for any water evaporation. During the solar irradiation experiments, the sample was adjusted to pH 6.2 and 7.2 or maintained at pH 8.2 by adding 4 mM phosphate buffer (pH 6.2, 7.2, and 8.2, respectively).
(§2) For the DBP samples with and without sunlight, aliquots were taken at a specific reaction time. The sample aliquots were analyzed using Agilent high-performance liquid chromatography (HPLC) equipped with a Poroshell 120 EC-C18 column (4.6 × 150 mm, 4 µm particle size, Agilent) and a UV detector. The mobile phase, consisting of water (pre-adjusted to pH 2 with phosphoric acid) and acetonitrile at 50/50 (v/v), was applied at a flow rate of 1.0 mL min^−1. PCMX, 2,4-dihalophenols and 5-halosalicylic acids were detected at the wavelength of 230 nm. 2,5-Dihalohydroquinones and 2,6-DCQ were detected at the wavelength of 280 nm. All the degradation experiments were conducted in duplicate.

[2] = Degradation in seawater in darkness (pH 6.2, 7.2, 8.2); conditions: for Ln (C/C0): seawater pH 8.2, darkness
Protocol: To study the DBP degradation in seawater in darkness, a DBP was added at 10 mg L^−1 to 50 mL pretreated seawater (pH 8.2) in the quartz flasks. The flasks were wrapped with aluminum foil to simulate the dark condition. The samples were kept at 20 °C in darkness for 0‒120 h, during which the sample was adjusted to pH 6.2 and 7.2 or maintained at pH 8.2 by adding 4 mM phosphate buffer (pH 6.2, 7.2, and 8.2, respectively).
as §2

[3] = system: bacteriophage MS2 (ATCC 15597-B1); assay: Inactivation of bacteriophage MS2 (double-layer agar, contact time 5 min); type: cell-based; conditions: Escherichia phage MS2, ATCC15597, 5 min, pH 7.2, read-out: Log (N/N0), MS2; dose 300 mg L-1; pH 7.2; contact time 5 min
Protocol: The bacteriophage MS2 (ATCC 15597-B1) was propagated in the host E. coli (ATCC 15597) in Tryptone Soya broth at 37 °C for 16 h. The viruses were separated from the bacterial debris and purified by centrifuging the phage culture (4000×g, 10 min, 4 °C) and filtering the lysate with a 0.2 μm polyethersulfone sterile filter. The filtrate was then diluted in PBS (10 mM, pH 7.2) to an initial MS2 concentration of 10^9‒10^10 plaque-forming units […]. To initiate the disinfection experiments, a series of DBP doses were added to the MS2 suspension at room temperature (22 ± 1 °C). […] Briefly, serial 10-fold dilutions were conducted for the disinfected samples and the control sample without disinfection. Each dilution was mixed with the host E. coli in the soft agar and the mixture was immediately spread onto a Petri dish with Tryptone Soya agar. After the Petri dishes were incubated at 37 °C for 16 h, the plaque-forming units were counted. The disinfection experiments were performed in duplicate. All the materials for the disinfection experiments were autoclaved before use.

S. aureus (ATCC 25923) = assay: Inactivation of S. aureus (contact time 5 min); type: cell-based, Staphylococcus aureus; conditions: Staphylococcus aureus, ATCC25923, 5 min, pH 7.2, read-out: Log (N/N0), S. aureus; dose 300 mg L-1; pH 7.2; contact time 5 min
Protocol: as §1

E. coli (ATCC 25922) = assay: Inactivation of E. coli by disinfectants (membrane filter enumeration, contact time 5 min); type: cell-based, Escherichia coli; conditions: for log reduction at 350 µg/mL / EC (3-log inactivation) / log reduction at 1200 µg/mL: Escherichia coli, ATCC25922, 5 min; for log reduction at 350 µg/mL: dose 350 mg L-1; for log reduction at 350 µg/mL / log reduction at 1200 µg/mL: 5 min; for EC (3-log inactivation): pH 7.2, read-out: Dose for achieving 3-log inactivation of E. coli; for E. coli inactivation rate constant k: pH 7.2, contact time 5 min; for log reduction at 1200 µg/mL: dose 1200 mg L-1
Protocol: as §1
The impact of pH on the disinfection efficiencies of DBPs was examined. E. coli (ATCC 25922) was used as the test strain. The disinfection experiments were performed in 10 mM PBS solutions (pH 6.2, 7.2, and 8.2) with an initial E. coli concentration of 10^6‒10^7 cells per milliliter. To initiate the disinfection, a DBP was dosed with a bacteria suspension at a predetermined concentration. After the given contact time (5 min) at room temperature (22 ± 1 °C), the bacteria were enumerated following the membrane filter method. The bacteria concentrations in the 10 mM PBS solutions (pH 6.2, 7.2, and 8.2) without the addition of DBPs were used as controls.

[4] = pH 6.2, read-out: Log (N/N0), E. coli, pH 6.2
[5] = pH 7.2, read-out: Log (N/N0), E. coli, pH 7.2
[6] = pH 8.2, read-out: Log (N/N0), E. coli, pH 8.2

Oc1ccc(Br)cc1Br [2,4-DBPh, 2,4-dibromophenol]
log reduction at 300 µg/mL (C. albicans (ATCC 14053)): 1.67 | Normal development (%) (P. dumerilii embryos; dilution factor 11.1486): 0% | Normal development (%) (P. dumerilii embryos; dilution factor 13.3783): 15.2624% and 20.2196% | Normal development (%) (P. dumerilii embryos; dilution factor 16.7229): 45.6306% and 47.4814% | Normal development (%) (P. dumerilii embryos; dilution factor 22.2972): 71.5034% and 77.6566% | Normal development (%) (P. dumerilii embryos; dilution factor 33.4458): 83.2326% and 85.1374% | Normal development (%) (P. dumerilii embryos; dilution factor 66.8916): 89.9171% and 84.7809% | Normal development (%) (P. dumerilii embryos; dilution factor 133.783): 89.4695% and 80.5305% | half-life at 10 mg L−1 [1]: 35 h | Ln (C/C0) ([1]; 0 h): 0 | Ln (C/C0) ([2]; 0 h): 0 | log reduction at 300 µg/mL [3]: 0.966 | log reduction at 300 µg/mL (S. aureus (ATCC 25923)): 0.669 | log reduction at 350 µg/mL (E. coli (ATCC 25922); [4]): 3.35 | EC (3-log inactivation) (E. coli (ATCC 25922)): 341 µg/mL | log reduction at 350 µg/mL (E. coli (ATCC 25922); [5]): 3.26 | log reduction at 350 µg/mL (E. coli (ATCC 25922); [6]): 3.57 | E. coli inactivation rate constant k (E. coli (ATCC 25922)): 0.28 L mg‒1 h‒1

Oc1cc(Cl)c(O)cc1Cl [2,5-DCHQ, 2,5-dichlorohydroquinone]
Normal development (%) (P. dumerilii embryos; dilution factor 557.542): 8.642% and 6.061% | Normal development (%) (P. dumerilii embryos; dilution factor 1115.08): 42.6369% and 40.0555% | Normal development (%) (P. dumerilii embryos; dilution factor 1393.85): 77.0891% and 77.2417% | Normal development (%) (P. dumerilii embryos; dilution factor 2787.71): 85.5556% and 87.7778% | Normal development (%) (P. dumerilii embryos; dilution factor 5575.42): 88.6789% and 83.1961% | half-life at 10 mg L−1 [1]: 0.12 h | Ln (C/C0) ([1]; 0 min): 0 | half-life at 10 mg L−1 ([2]; buffer, pH 8.2): 7.8 min | Relative concentration remaining (1 at 0 min) ([2]; pH 6.2, degradation time 0 min): 1 | Relative concentration remaining (1 at 0 min) ([2]; pH 6.2, degradation time 15 min): 1.022 and 0.9793 | Relative concentration remaining (1 at 0 min) ([2]; pH 6.2, degradation time 30 min): 0.9852 and 1.003 | Relative concentration remaining (1 at 0 min) ([2]; pH 6.2, degradation time 60 min): 1.02 and 0.9636 | Relative concentration remaining (1 at 0 min) ([2]; pH 6.2, degradation time 90 min): 0.9949 and 0.9533 | Relative concentration remaining (1 at 0 min) ([2]; pH 6.2, degradation time 120 min): 0.9685 and 0.9533 | Relative concentration remaining (1 at 0 min) ([2]; pH 6.2, degradation time 180 min): 0.9436 and 0.9061 | Relative concentration remaining (1 at 0 min) ([2]; pH 6.2, degradation time 240 min): 0.9109 and 0.8967 | Relative concentration remaining (1 at 0 min) ([2]; pH 7.2, degradation time 0 min): 1 | Relative concentration remaining (1 at 0 min) ([2]; pH 7.2, degradation time 15 min): 0.972 and 0.958 | Relative concentration remaining (1 at 0 min) ([2]; pH 7.2, degradation time 30 min): 0.8774 and 0.8538 | Relative concentration remaining (1 at 0 min) ([2]; pH 7.2, degradation time 45 min): 0.7996 and 0.7512 | Relative concentration remaining (1 at 0 min) ([2]; pH 7.2, degradation time 60 min): 0.6873 and 0.677 | Relative concentration remaining (1 at 0 min) ([2]; pH 7.2, degradation time 90 min): 0.5344 and 0.5155 | Relative concentration remaining (1 at 0 min) ([2]; pH 7.2, degradation time 120 min): 0.3928 and 0.369 | Relative concentration remaining (1 at 0 min) ([2]; pH 7.2, degradation time 180 min): 0.2793 and 0.2513 | Relative concentration remaining (1 at 0 min) ([2]; pH 8.2, degradation time 0 min): 1 | Relative concentration remaining (1 at 0 min) ([2]; pH 8.2, degradation time 3 min): 0.7671 and 0.7343 | Relative concentration remaining (1 at 0 min) ([2]; pH 8.2, degradation time 8 min): 0.4955 and 0.4354 | Relative concentration remaining (1 at 0 min) ([2]; pH 8.2, degradation time 12 min): 0.3245 and 0.3105 | Relative concentration remaining (1 at 0 min) ([2]; pH 8.2, degradation time 16 min): 0.2259 and 0.2074 | Relative concentration remaining (1 at 0 min) ([2]; pH 8.2, degradation time 20 min): 0.1584 and 0.1371 | Relative concentration remaining (1 at 0 min) ([2]; pH 8.2, degradation time 25 min): 0.1047 and 0.0786 | Ln (C/C0) ([2]; 0 min): 0 | log reduction at 300 µg/mL (S. aureus (ATCC 25923)): 0.434 | log reduction at 1200 µg/mL (E. coli (ATCC 25922); [4]): 2.28 | EC (3-log inactivation) (E. coli (ATCC 25922)): 946 µg/mL | log reduction at 1200 µg/mL (E. coli (ATCC 25922); [5]): 3.73 | log reduction at 1200 µg/mL (E. coli (ATCC 25922); [6]): 4.18 | E. coli inactivation rate constant k (E. coli (ATCC 25922)): 0.05 L mg‒1 h‒1
